Data published in publication PMC12254823 (Acta Pharmaceutica Sinica. B, 2025).
Where “and” joins values, the source holds several entries; their conditions need not be identical. Equal values may be shown once.

Tests used:
PA-C K643A = PA-C K643A (Influenza A virus, UniProt P15659, K643A); assay type: binding, influenza A virus (H1)
[1] = target: H1 PA-PB1 heterodimeric complex (Influenza A virus, UniProt P15659); assay type: biochemical

With `COc1ccc(NC(=S)NCc2cccc3cn[nH]c23)cc1OC` [Compound 24, 1-[(1H-Indazol-7-yl)methyl]-3-(3,4-dimethoxyphenyl)thiourea] the “Melting temperature (Tm)” value (PA-C K643A) was 50.2 ± 1.9 °C and the “PA-PB1 complex co-immunoprecipitated compared to DMSO control” value [1] was 53.5% ± 7.9% and 53.5%.
